These results are taken from patent US9127233B2, “Device and method for solubilizing, separating, removing and reacting carboxylic acids in oils, fats, aqueous or organic solutions by means of micro-or nanoemulsification” (priority 2010, dated 2015).

“And” between values parts separate entries of the source, which are not always exact repeats. Identical values can stand only once. Like-named read-outs stand apart in the source and are kept apart here.

Series [1] is described as follows: pH of aqueous solution of solubilizing compound mixed with oleic acid. Type of series: physicochemical. Conditions: solubilizing compound in water with 0.833 mol equivalents of oleic acid.
A short description of series [2]: Dynamic laser light scattering (DLS) of oleic acid micro-/nanoemulsions. Type of series: physicochemical. Conditions: for Mean Size by Intensity: DLS, emulsion with oleic acid; for Part: percentage of the peak in the sample.
The nature of series [3]: Estimation of the interaction between oleic acid and the test substance. Format: physicochemical.

On to `NC(N)=O` [Urea, reference compound], for which, in series [1], the pH turned out to be 8.59. In series [2], the “Mean Size by Intensity” value was 341 nm and the Part stood at 96.3%. The “Interaction with Oleic Acid” value in series [3] (60° C.) was “((X))”.
The logP is a log measure of how a compound divides between an organic and an aqueous phase. Higher therefore signals a more lipophilic compound. Take `N=C(N)NC(N)=O.O.O=S(=O)(O)O` [N-Guanylurea sulfate salt hydrate]: the lipophilicity (logP) in “physchem” is 3.54. Further, the “Interaction with Oleic Acid” value in series [3] is listed as “X, E”.
With `CC(=O)O.CNC(=N)NCCC[C@H](N)C(=O)O` [N-ω-monomethyl-L-arginine acetate], the pH in series [1] came to 8.49. Further, the “Interaction with Oleic Acid” value in series [3] is “X, E”.
`CC(=N)NCCCC[C@H](N)C(=O)O` [L-NIL]: the pH in series [1] was determined as 9.12. In series [2], the “Mean Size by Intensity” value was found to be 349 nm and the Part is 94.1%. Moreover, the “Interaction with Oleic Acid” value in series [3] is “X, E”.
Consider `CC(=O)NC1CCSC1=O` (racemic) [DL-N-Acetylhomocysteine thiolactone, reference compound], for which the pH in series [1] was 10.70.
Regarding `Cc1c[nH]cn1`, the pH in series [1] amounted to 8.90. Also, in series [2], the “Mean Size by Intensity” value worked out at 224 nm and the Part is given as 96.7%. The “Interaction with Oleic Acid” value in series [3] was “X, E/S”.
As to `CN(C)C(N)=NCCC[C@H](N)C(=O)O.Cl.Cl` [NG,NG-Dimethylarginine dihydrochloride], the pH in series [1] was 9.45. Moreover, in series [2], the “Mean Size by Intensity” value is recorded as 22.9 nm and the Part turned out to be 87.4%. Besides, the “Interaction with Oleic Acid” value in series [3] is given as “X, E”.
For the compound `NC(N)=NOCC[C@H](N)C(=O)O` [L-Canavanine free base], the pH in series [1] was 8.67 and 9.04. The “Interaction with Oleic Acid” value in series [3] was “(X), S, E and X, E”.
For `CN(C)C(=N)NC(=N)N.Cl` [1,1-Dimethylbiguanide hydrochloride, reference compound], the pH in series [1] is listed as 9.20.
With “Argininosuccinic acid disodium salt hydrate”, in series [1], the pH was 9.93. Moreover, in series [2], the “Mean Size by Intensity” value turned out to be 721 nm and the Part was 74.6%. Moreover, the “Interaction with Oleic Acid” value in series [3] is “X, E”.
With `NC(=NCC[C@H](N)C(=O)O)NO` [N-ω-Hydroxy-L-norarginine], in series [1], the pH is 9.51. Also, in series [2], the “Mean Size by Intensity” value is reported as 325 nm and the Part was determined as 93.9%. Moreover, the “Interaction with Oleic Acid” value in series [3] is given as “X, E, S”.
Consider “polyhexamethylenbiguanide (PHMB) [Polyhexanide −5% (2300 bis 3100 MW), reference compound]”, for which the pH in series [1] is 5.61 and 8.61. Besides, in series [3], the “Interaction with Oleic Acid” value is on record as “X, S”.
Take `CC(=O)NCC(=O)O.CC(=O)NCC(=O)O.N=C(N)c1ccc(N=NNc2ccc(C(=N)N)cc2)cc1` [Diminazene aceturate (basic), Diminazene aceturate, reference compound]: in series [2], the “Mean Size by Intensity” value is recorded as 426 nm and the Part worked out at 60.7%. The “Interaction with Oleic Acid” value in series [3] is “X, S, (E)”.
Turning to `c1c[nH]cn1` [Imidazole], in “physchem”, the lipophilicity (logP) is -0.67.
In the case of `NC(N)=NCCCC[C@H](N)C(=O)O` [H-Homoarg-OH], in series [1], the pH was 8.66. Moreover, in series [2], the “Mean Size by Intensity” value was 107 nm and the Part amounted to 68.5%. In addition, the “Interaction with Oleic Acid” value in series [3] is “X, E”.
As to `NC(=NCCC[C@H](N)C(=O)O)N[N+](=O)[O-]` [N-ω-Nitro-L-arginine], the pH in series [1] is listed as 11.95. In series [2], the “Mean Size by Intensity” value worked out at 85.5 nm and the Part stood at 46.7%. Besides, in series [3], the “Interaction with Oleic Acid” value was “X, E”.
With “Poly-L-arginine HCl [Poly-L-arginine HCl (70.000-150.000 MW)]”, in series [3], the “Interaction with Oleic Acid” value is given as “X, S”.
With `C[C@@H](N[C@@H](CCCN=C(N)N)C(=O)O)C(=O)O` [D-(+)-Octopine], the pH in series [1] was 6.70. Moreover, in series [2], the “Mean Size by Intensity” value stood at 435 nm and the Part is listed as 94.7%. In addition, the “Interaction with Oleic Acid” value in series [3] is reported as “X, E”.
